# Experimental data from PubChem BioAssay AID504685 (Sanford-Burnham Center for Chemical Genomics, 2011).
# Activity calls are given as the source filed them. The rule behind the calls is not given here.
# Target: Bcl-2-related protein A1 (Mus musculus) (UniProt Q07440)
# Test: Bfl-1 counter-screen inhibitors, SAR follow-up, counter-screen for UBC13 polyubiquitination inhibitor project, biochemical, mouse Bfl-1 (AID 504685)
# Settings: Bfl-1 counterscreen for UBC13 inhibitors
row,SMILES,IC50
1,Cc1c(NC(=O)CCCN2C(=O)c3cccc4cccc(c34)C2=O)c(=O)n(-c2ccccc2)n1C,> 100 µM (inactive)
2,CC(C)(C)c1ccc(OCC(O)CN2CCN(CCN3C(=O)c4cccc5cccc(c45)C3=O)CC2)cc1 (stereo not drawn),> 100 µM (inactive)
3,CCOc1cccc2sc(N(CCCN(C)C)C(=O)c3ccc(S(=O)(=O)N(C)Cc4ccccc4)cc3)nc12,> 100 µM (inactive)
4,COc1cccc(OCC(O)CN2CCN(CCN3C(=O)c4cccc5cccc(c45)C3=O)CC2)c1 (stereo not drawn),> 100 µM (inactive)
5,O=C(CCCCCN1C(=O)c2ccccc2C1=O)NCc1ccco1,> 100 µM (inactive)
6,O=C1c2cccc3cccc(c23)N1Cc1ccc(F)cc1,> 100 µM (inactive)
7,O=C(Nc1ccc(F)c(Cl)c1)C1CCN(c2ncnc3c2nc2n3CCCCC2)CC1,> 100 µM (inactive)
8,CNCc1cc(Br)c(OCC(=O)Nc2ccccc2OC)c(OC)c1,> 100 µM (inactive)
9,CN(C)CCCN(C(=O)c1ccc(S(=O)(=O)N2CCCCC2)cc1)c1nc2cc3c(cc2s1)OCO3,> 100 µM (inactive)
10,O=C(NCC1CCN(Cc2ccc(F)cc2)CC1)C1CCCN(c2ncnc3c2nc2n3CCCCC2)C1 (stereo not drawn),> 100 µM (inactive)
11,CC1(C)Cc2c(sc(NC(=O)COc3ccc(Cl)cc3Cl)c2C(N)=O)C(C)(C)N1,> 100 µM (inactive)
12,O=C1c2cccc3cccc(c23)C(=O)N1CC1CCN(CC(O)COCc2ccc3c(c2)OCO3)CC1 (stereo not drawn),96.2 µM
13,Cc1cc(C)c2sc(N(CCCN(C)C)C(=O)c3ccc(S(=O)(=O)N4CCc5ccccc5C4)cc3)nc2c1,> 100 µM (inactive)
14,O=C(NCCCN1CCCCC1)C1CCN(c2ncnc3c2nc2n3CCCCC2)CC1,> 100 µM (inactive)
15,CN(C)CCCN(C(=O)c1ccc(S(=O)(=O)N2CCc3ccccc3C2)cc1)c1nc2ccc(F)cc2s1,60.7 µM
16,CC(=O)c1ccccc1OCC(O)CN1CCN(CCN2C(=O)c3cccc4cccc(c34)C2=O)CC1 (stereo not drawn),93.1 µM
17,Cc1ccc2c(c1)C1CN(C)CCC1N2C(=O)CCCN1C(=O)c2cccc3cccc(c23)C1=O (stereo not drawn),> 100 µM (inactive)
18,O=C1c2cccc3cccc(c23)C(=O)N1CCN1CCN(CC(O)COc2ccc(Cl)cc2)CC1 (stereo not drawn),> 100 µM (inactive)
19,CC(NC(=O)CCCCCN1C(=O)c2ccccc2C1=O)c1nc(-c2ccccc2)no1 (stereo not drawn),> 100 µM (inactive)
20,COc1ccc(COCC(O)CN2CCC(CN3C(=O)c4cccc5cccc(c45)C3=O)CC2)cc1OC (stereo not drawn),> 100 µM (inactive)
21,CC1CN(S(=O)(=O)c2ccc(NC(=O)CCCCCN3C(=O)c4ccccc4C3=O)cc2)CC(C)O1 (stereo not drawn),> 100 µM (inactive)

row,SMILES,IC50
1,Cc1[nH]c2c(Cl)c(Cl)ccc2c1CCNC(=O)CCCCCN1C(=O)c2ccccc2C1=O,> 100 µM (inactive)
2,CCOc1ccc(NC(=O)Cn2c(=O)n(CCCC(=O)NC3CCN(Cc4ccccc4)CC3)c(=O)c3ccccc32)cc1,> 100 µM (inactive)
3,CN(C)CCCN(C(=O)c1ccc(C(=O)c2ccccc2)cc1)c1nc2cc3c(cc2s1)OCCO3,85.3 µM
4,O=C1c2cccc3cccc(c23)C(=O)N1CCN1CCN(CC(O)COc2ccc3c(c2)OCO3)CC1 (stereo not drawn),> 100 µM (inactive)
5,Cc1cc(C)c2sc(N(CCCN(C)C)C(=O)c3ccc(S(=O)(=O)N(C)Cc4ccccc4)cc3)nc2c1,> 100 µM (inactive)
6,CCOc1ccc2nc(N(CCCN(C)C)C(=O)c3ccc(S(=O)(=O)N4CCc5ccccc5C4)cc3)sc2c1,> 100 µM (inactive)
7,O=C(CCCCCN1C(=O)c2ccccc2C1=O)Nc1ccc(S(=O)(=O)Nc2ncccn2)cc1,> 100 µM (inactive)
8,COc1ccc(C)c2sc(N(CCCN(C)C)C(=O)c3ccc(S(=O)(=O)N(C)C)cc3)nc12,> 100 µM (inactive)
9,CCCCOC(=O)c1cccc(NC(=O)CCCCCN2C(=O)c3ccccc3C2=O)c1,> 100 µM (inactive)
10,CN(C)CCCN(C(=O)c1ccc(S(=O)(=O)N2CCCC2)cc1)c1nc2ccc(Br)cc2s1,> 100 µM (inactive)
11,Cc1ccccc1OCC(O)CN1CCN(CCN2C(=O)c3cccc4cccc(c34)C2=O)CC1 (stereo not drawn),> 100 µM (inactive)
12,COC(=O)C1=C(NC(=O)CCCCCN2C(=O)c3ccccc3C2=O)SC2CCCC12 (stereo not drawn),> 100 µM (inactive)
13,CCN(Cc1ccccc1)S(=O)(=O)c1ccc(C(=O)N(CCCN(C)C)c2nc3cc4c(cc3s2)OCO4)cc1,57 µM
14,O=C(CCCn1c(=O)c2ccccc2n(Cc2cccc([N+](=O)[O-])c2)c1=O)NC1CCN(Cc2ccccc2)CC1,> 100 µM (inactive)
15,CCc1ccc(OCC(O)CN2CCC(CN3C(=O)c4cccc5cccc(c45)C3=O)CC2)cc1 (stereo not drawn),> 100 µM (inactive)
16,CC1CCCCN1C(=O)C1CCN(c2ncnc3c2nc2n3CCCCC2)CC1 (stereo not drawn),> 100 µM (inactive)
17,O=C(C1CCN(c2ncnc3c2nc2n3CCCCC2)CC1)N1CCN(Cc2ccccc2)CC1,> 100 µM (inactive)
18,Cc1ccc2nc(N(CCCN(C)C)C(=O)c3ccc(S(=O)(=O)N4CCc5ccccc5C4)cc3)sc2c1,> 100 µM (inactive)
19,CN(C)CCCN(C(=O)c1ccc(S(=O)(=O)N(C)Cc2ccccc2)cc1)c1nc2cc3c(cc2s1)OCO3,81 µM
20,O=C(NCCCN1CCN(c2ccc(F)cc2)CC1)C1CCCN(c2ncnc3c2nc2n3CCCCC2)C1 (stereo not drawn),> 100 µM (inactive)
21,O=C(C1COc2ccccc2O1)N1CCN(CCN2C(=O)c3cccc4cccc(c34)C2=O)CC1 (stereo not drawn),> 100 µM (inactive)

row,SMILES,IC50
1,COc1ccc2sc(N(CCCN(C)C)C(=O)c3ccc(S(=O)(=O)N(C)Cc4ccccc4)cc3)nc2c1,79.4 µM
2,CN(CCNC(=O)C1CCN(c2ncnc3c2nc2n3CCCCC2)CC1)Cc1ccccc1,> 100 µM (inactive)
3,COc1ccc(-c2oc3ncnc(N)c3c2-c2ccccc2)cc1,> 100 µM (inactive)
4,O=C(CCCCCN1C(=O)c2ccccc2C1=O)Nc1ccc(S(=O)(=O)N2CCCCC2)cc1,> 100 µM (inactive)
5,CN(C)CCCN(C(=O)c1ccc2c(c1)CCCC2)c1nc2ccc(Cl)cc2s1,> 100 µM (inactive)
6,O=C(C1CCN(c2ncnc3c2nc2n3CCCCC2)CC1)N1CCC(Cc2ccccc2)CC1,> 100 µM (inactive)
7,CCN(Cc1ccccc1)S(=O)(=O)c1ccc(C(=O)N(CCCN(C)C)c2nc3cc(C)cc(C)c3s2)cc1,> 100 µM (inactive)
8,Cc1nc2ccccc2c(=O)n1NC(=O)c1ccc(OC(F)F)cc1,> 100 µM (inactive)
9,CC(NC(=O)CCCCCN1C(=O)c2cccc([N+](=O)[O-])c2C1=O)c1ccccc1 (stereo not drawn),> 100 µM (inactive)
10,Cc1cc(NC(=O)Cn2c(=O)n(CCCCC(=O)NC3CCN(Cc4ccccc4)CC3)c(=O)c3ccccc32)n[nH]1,> 100 µM (inactive)
11,COc1ccc(C(=O)Nn2c(C)nc3ccccc3c2=O)cc1,> 100 µM (inactive)
12,COc1cccc(NC(=O)CCCCCN2C(=O)c3cccc([N+](=O)[O-])c3C2=O)c1,> 100 µM (inactive)
13,CN(C)CCCN(C(=O)c1ccc(S(=O)(=O)N2CCCCCC2)cc1)c1nc2cc3c(cc2s1)OCCO3,> 100 µM (inactive)
14,O=C(CCCCCN1C(=O)c2cccc3cccc(c23)C1=O)NCc1cccnc1,> 100 µM (inactive)
15,O=C(NCC1CCN(Cc2ccc(Cl)cc2)CC1)C1CCCN(c2ncnc3c2nc2n3CCCCC2)C1 (stereo not drawn),> 100 µM (inactive)
16,Cc1cc(NS(=O)(=O)c2ccc(NC(=O)CCCCCN3C(=O)c4ccccc4C3=O)cc2)nc(C)n1,> 100 µM (inactive)
17,O=C(CCCCCN1C(=O)c2ccccc2C1=O)NCc1ccccn1,> 100 µM (inactive)
18,Cc1ccc(-c2oc3ncnc(N)c3c2-c2ccc(C)cc2)cc1,> 100 µM (inactive)
19,CCOc1cccc2sc(N(CCCN(C)C)C(=O)c3ccc(S(=O)(=O)N(CC)Cc4ccccc4)cc3)nc12,86.6 µM
20,Cc1ccc(OCC(O)CN2CCN(CCN3C(=O)c4cccc5cccc(c45)C3=O)CC2)c(C)c1 (stereo not drawn),97 µM
21,CN(C)CCCN(C(=O)c1ccc(C(=O)c2ccccc2)cc1)c1nc2cc3c(cc2s1)OCO3,> 100 µM (inactive)

row,SMILES,IC50
1,CC1CCCC(C)N1CCCNC(=O)C1CCCN(c2ncnc3c2nc2n3CCCCC2)C1 (stereo not drawn),> 100 µM (inactive)
2,O=C(CCCCCN1C(=O)c2cccc([N+](=O)[O-])c2C1=O)NCc1ccccc1,> 100 µM (inactive)
3,CCc1ccc2nc(N(CCCN(C)C)C(=O)c3ccc(S(=O)(=O)N4CCc5ccccc5C4)cc3)sc2c1,> 100 µM (inactive)
4,CN(C)CCCn1c(SCC(=O)Nc2nc(-c3cccc(Br)c3)cs2)nc2ccccc2c1=O,16.9 µM
5,COc1cc2nc(N(CCCN(C)C)C(=O)c3ccc(S(=O)(=O)N4CCc5ccccc5C4)cc3)sc2cc1OC,69.3 µM
6,COc1ccc(OC)c2sc(N(CCCN(C)C)C(=O)c3ccc(S(=O)(=O)N4CCc5ccccc5C4)cc3)nc12,12 µM
7,O=C1c2cccc3cccc(c23)C(=O)N1CCN1CCN(CC(O)COc2ccc(C3CCCCC3)cc2)CC1 (stereo not drawn),> 100 µM (inactive)
8,CN(C)CCCN(C(=O)c1ccc(S(=O)(=O)N2CCCCCC2)cc1)c1nc2ccc(Br)cc2s1,> 100 µM (inactive)
9,O=C(CCCn1c(=O)c2ccccc2n(Cc2cccc(F)c2)c1=O)NC1CCN(Cc2ccccc2)CC1,> 100 µM (inactive)
10,COCCOC(=O)c1ccc(NC(=O)CCCCCN2C(=O)c3ccccc3C2=O)cc1,> 100 µM (inactive)
11,Cc1ccccc1CN1CCC(CNC(=O)C2CCCN(c3ncnc4c3nc3n4CCCCC3)C2)CC1 (stereo not drawn),> 100 µM (inactive)
12,CCOc1ccc2nc(N(CCCN(C)C)C(=O)c3ccc(C(=O)c4ccccc4)cc3)sc2c1,> 100 µM (inactive)
13,Cc1cc(C)cc(OCCNC(=O)CCCCCN2C(=O)c3ccccc3C2=O)c1,> 100 µM (inactive)
14,NNC(=O)c1ccc(CN2C(=O)c3cccc4cccc2c34)cc1,> 100 µM (inactive)
15,CCCN1CCN(C(=O)C2CCN(c3ncnc4c3nc3n4CCCCC3)CC2)CC1,> 100 µM (inactive)
16,CC(=O)Nc1ccc(OCC(O)CN2CCN(CCN3C(=O)c4cccc5cccc(c45)C3=O)CC2)cc1 (stereo not drawn),> 100 µM (inactive)
17,COc1cc(/C=C/c2cc[n+](C)cc2)ccc1OCC(=O)Nc1ccc(Cl)c(Cl)c1,55.3 µM
18,COc1ccc(CCNC(=O)CCCCCN2C(=O)c3ccccc3C2=O)cc1,> 100 µM (inactive)
19,C=CCc1ccccc1OCC(O)CN1CCN(CCN2C(=O)c3cccc4cccc(c34)C2=O)CC1 (stereo not drawn),> 100 µM (inactive)
20,CC1CC(C)CN(C(=O)C2CCN(c3ncnc4c3nc3n4CCCCC3)CC2)C1 (stereo not drawn),> 100 µM (inactive)
